{
  "source": "paper PMC5482895",
  "about": "“Structural and biochemical studies of sulphotransferase 18 from Arabidopsis thaliana explain its substrate specificity and reaction mechanism” (Scientific Reports, 2017)",
  "key": {"AtSOT18 [1]": {"biological_target": "T1, AtSOT18 (Arabidopsis thaliana, UniProt Q9C9C9)", "T1 construct": "gene SOT18", "T1 sequence (Q9C9C9 1-350)": "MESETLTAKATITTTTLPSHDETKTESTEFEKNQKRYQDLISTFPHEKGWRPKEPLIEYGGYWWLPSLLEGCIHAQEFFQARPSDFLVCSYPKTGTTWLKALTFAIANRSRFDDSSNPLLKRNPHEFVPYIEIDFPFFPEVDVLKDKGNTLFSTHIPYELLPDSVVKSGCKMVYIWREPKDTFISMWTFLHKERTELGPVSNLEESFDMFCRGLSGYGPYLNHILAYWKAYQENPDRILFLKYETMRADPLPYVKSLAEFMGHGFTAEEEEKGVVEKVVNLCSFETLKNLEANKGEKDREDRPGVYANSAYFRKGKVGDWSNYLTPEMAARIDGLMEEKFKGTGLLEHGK", "experiment": "sulphotransferase activity of purified enzyme, HPLC at […] nm", "assay_type": "biochemical"}, "AtSOT18 [2]": {"biological_target": "T2, AtSOT18 (Arabidopsis thaliana, UniProt Q9C9C9)", "T2 construct": "gene SOT18; residues 26–347 in the model", "T2 sequence (Q9C9C9 26-347)": "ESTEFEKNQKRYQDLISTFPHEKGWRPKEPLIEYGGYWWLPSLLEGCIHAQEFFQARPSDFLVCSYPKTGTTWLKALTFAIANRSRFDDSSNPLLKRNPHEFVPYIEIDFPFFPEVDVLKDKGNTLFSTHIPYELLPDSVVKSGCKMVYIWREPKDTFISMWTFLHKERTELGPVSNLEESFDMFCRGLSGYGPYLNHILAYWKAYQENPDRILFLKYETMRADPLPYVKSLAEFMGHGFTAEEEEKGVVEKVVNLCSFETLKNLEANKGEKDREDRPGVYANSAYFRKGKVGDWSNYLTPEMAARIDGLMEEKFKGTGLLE", "experiment": "X-ray crystal structure of ternary complex ([…] Å)", "assay_type": "binding"}, "AtSOT18 [3]": {"biological_target": "T2, AtSOT18", "experiment": "X-ray crystal structure ([…] Å), plus competitive inhibition kinetics against PAPS", "assay_type": "biochemical"}, "AtSOT18 [4]": {"biological_target": "T1, AtSOT18", "experiment": "two-dimensional enzyme kinetic titration (HPLC), non-linear fit", "assay_type": "biochemical"}, "AtSOT18 [5]": {"biological_target": "T1, AtSOT18", "experiment": "sulphotransferase activity of purified enzyme, HPLC at […] nm", "assay_type": "biochemical", "remark": "listed apart in the source"}, "AtSOT18 [6]": {"biological_target": "T1, AtSOT18", "experiment": "sulphotransferase activity of purified enzyme, HPLC at […] nm", "assay_type": "biochemical", "remark": "listed apart in the source"}, "AtSOT18 [7]": {"biological_target": "T1, AtSOT18", "experiment": "sulphotransferase activity of purified enzyme, HPLC at […] nm", "assay_type": "biochemical", "remark": "listed apart in the source"}},
  "data": [
    {"smiles": "CSCCC/C(=N/O)S[C@@H]1O[C@H](CO)[C@@H](O)[C@H](O)[C@H]1O", "note": "[3MTP, ds-3MTP]", "values": [
      {"measurement": "3 MTP", "setting": "AtSOT18 [1]", "value": "1624 ± 122", "unit": "pkatal mg^−1"}
    ]},
    {"smiles": "C=CCC(=NOS(=O)(=O)O)S[C@@H]1O[C@H](CO)[C@@H](O)[C@H](O)[C@H]1O", "note": "(stereo in doubt) [sinigrin]", "values": [
      {"measurement": "X-ray crystal structure of ternary complex (1.92 Å)", "setting": "AtSOT18 [2]", "value": "together with the product Gl sinigrin (PDB ID: 5MEX) were solved"}
    ]},
    {"smiles": "Nc1ncnc2c1ncn2[C@@H]1O[C@H](COP(=O)(O)O)[C@@H](OP(=O)(O)O)[C@H]1O", "note": "[PAP, 3′-phosphoadenosine 5′-phosphate]", "values": [
      {"measurement": "Ki", "setting": "AtSOT18 [3]", "value": "3 ± 1.7", "unit": "µM"}
    ]},
    {"smiles": "Nc1ncnc2c1ncn2[C@@H]1O[C@H](COP(=O)(O)OS(=O)(=O)O)[C@@H](OP(=O)(O)O)[C@H]1O", "note": "[PAPS, 3′-phosphoadenosine 5′-phosphosulphate]", "values": [
      {"measurement": "Kd", "setting": "AtSOT18 [4]", "value": "4.2 ± 2.6", "unit": "µM"}
    ]},
    {"smiles": "C=CC/C(=N/O)S[C@@H]1O[C@H](CO)[C@@H](O)[C@H](O)[C@H]1O", "note": "[Sinigrin (ds form), ds-Gl sinigrin]", "values": [
      {"measurement": "Sinigrin", "setting": "AtSOT18 [5]", "value": "879 ± 410", "unit": "pkatal mg^−1"}
    ]},
    {"smiles": "CSCCCCCCCC/C(=N/O)S[C@@H]1O[C@H](CO)[C@@H](O)[C@H](O)[C@H]1O", "note": "[8MTO, ds-8MTO]", "values": [
      {"measurement": "8MTO", "setting": "AtSOT18 [6]", "value": "1618 ± 272", "unit": "pkatal mg^−1"}
    ]},
    {"smiles": "OC[C@H]1O[C@@H](S/C(Cc2c[nH]c3ccccc23)=N\\O)[C@H](O)[C@@H](O)[C@@H]1O", "note": "[I3M, ds-I3M]", "values": [
      {"measurement": "I3M", "setting": "AtSOT18 [7]", "value": "501 ± 46", "unit": "pkatal mg^−1"}
    ]}
  ]
}
